Data taken from patent publication US20100279997A1, “ANALGESIC THAT BINDS FILAMIN A” (priority 2009, published 2010).

Columns and labels:
filamin A = filamin A (Homo sapiens, UniProt P21333); details: Wang et al, 2008 PLoS One 3:e1554; read-out: affinity of binding to filamin A; cited from earlier work
μ opiate receptor (MOR) = biological target: T1, μ opiate receptor (MOR) (Rattus norvegicus, UniProt P33535); assay: MOR agonist activity, [35S]GTPγS binding assay using striatal membranes; assay type: biochemical; details: for [35S]GTPγS binding to Gαo, FLNA-binding compound as agonist 0.1 μM: 0.1 μM compound; for [35S]GTPγS binding to Gαo, FLNA-binding compound as agonist 0.1 μM / [35S]GTPγS binding to Gαo, FLNA-binding compound as agonist 1 μM: striatal membranes; for [35S]GTPγS binding to Gαo, FLNA-binding compound as agonist 1 μM + BFNA: 1 μM compound + 1 μM β-funaltrexamine; for [35S]GTPγS binding to Gαo, FLNA-binding compound as agonist 1 μM: 1 μM compound
T1 construct: from tissue; host or cells: striatal tissue (membrane preparation)
T1 sequence (P33535 whole entry): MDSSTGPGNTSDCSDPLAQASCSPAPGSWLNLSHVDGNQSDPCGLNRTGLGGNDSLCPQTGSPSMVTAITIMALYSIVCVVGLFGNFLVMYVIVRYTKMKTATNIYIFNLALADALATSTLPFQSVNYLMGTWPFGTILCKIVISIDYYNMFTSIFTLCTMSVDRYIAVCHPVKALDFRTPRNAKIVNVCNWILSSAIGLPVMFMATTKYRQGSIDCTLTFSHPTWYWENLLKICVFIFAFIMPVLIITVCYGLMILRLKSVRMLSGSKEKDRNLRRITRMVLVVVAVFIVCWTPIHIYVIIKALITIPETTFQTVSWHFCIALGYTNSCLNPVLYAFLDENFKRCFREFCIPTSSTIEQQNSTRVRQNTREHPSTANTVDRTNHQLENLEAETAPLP

[1] = system: MOR coupling to Gαs/olf and Gαo; assay: Relative Gs/Go switching, MOR-G protein coupling in organotypic striatal slice cultures; assay type: cell-based; details: rat striatal slices
Description: Striatal slices ([…]) were prepared using a McIlwain tissue chopper (Mickle Laboratory Engineering Co., Surrey, UK). Slices were carefully transferred to sterile, porous culture inserts (0.4 μm, Millicell-CM) using the rear end of a glass Pasteur pipette. Each culture insert unit contained 2 slices and was placed into one well of the 12-well culture tray. […] The pH value was adjusted to 7.2 with HEPES buffer.
Cultures were first incubated for 2 days to minimize the impact of injury from slice preparation. Incubator settings throughout the experiment were 36° C. with 5% CO2.
Slices were returned to culture medium with normal serum after each drug exposure. Tissues were harvested 16 hours after the last drug exposure by centrifugation.
For determination of MOR-G protein coupling, slices were homogenized to generate synaptic membranes. […] Following centrifugation, striatal membrane lysates were immunoprecipitated with immobilized anti-Gαs/olf or -Gαo conjugated with immobilized protein G-agarose beads. The level of MOR in anti-Gαs/olf or -Gαo immunoprecipitates was determined by Western blotting using specific anti-MOR antibodies.

[2] = biological target: Bn-VAKGL pentapeptide of filamin A (FLNA) (Homo sapiens, UniProt P21333); assay: FITC-NLX-based FLNA screening assay (FLNA peptide binding assay)
Description: The final assay volume is 100 μl.
Compounds are tested in triplicate or quadruplicate.

[3] = Mouse hot-water tail-flick test; assay type: in vivo; details: 32 mg/kg
Description: The mouse “tail flick” test was used to assay the relative antinociceptive activity of compositions containing a compound to be assayed. This assay was substantially that disclosed by Xie et al., 2005 J. Neurosci 25:409-416.
The mouse hot-water tail-flick test was performed by placing the distal third of the tail in a water bath maintained at 52° C. The latency until tail withdrawal from the bath was determined and compared among the treatments. A 10 second cutoff was used to avoid tissue damage. Data are converted to percentage of antinociception by the following formula: (response latency−baseline latency)/(cutoff−baseline latency)×100 to generate dose-response curves. […] Relative potency was determined as a ratio of the A50 values.
To assess tolerance to the antinociceptive effect, the compound was administered twice daily for 7 days at an A90 dose (dose that results in a 90% antinociceptive effect in the 52° C. warm-water tail-flick test), and the tail-flick test was performed daily after the a.m. dose.

Chain of filamin A (P21333 whole entry): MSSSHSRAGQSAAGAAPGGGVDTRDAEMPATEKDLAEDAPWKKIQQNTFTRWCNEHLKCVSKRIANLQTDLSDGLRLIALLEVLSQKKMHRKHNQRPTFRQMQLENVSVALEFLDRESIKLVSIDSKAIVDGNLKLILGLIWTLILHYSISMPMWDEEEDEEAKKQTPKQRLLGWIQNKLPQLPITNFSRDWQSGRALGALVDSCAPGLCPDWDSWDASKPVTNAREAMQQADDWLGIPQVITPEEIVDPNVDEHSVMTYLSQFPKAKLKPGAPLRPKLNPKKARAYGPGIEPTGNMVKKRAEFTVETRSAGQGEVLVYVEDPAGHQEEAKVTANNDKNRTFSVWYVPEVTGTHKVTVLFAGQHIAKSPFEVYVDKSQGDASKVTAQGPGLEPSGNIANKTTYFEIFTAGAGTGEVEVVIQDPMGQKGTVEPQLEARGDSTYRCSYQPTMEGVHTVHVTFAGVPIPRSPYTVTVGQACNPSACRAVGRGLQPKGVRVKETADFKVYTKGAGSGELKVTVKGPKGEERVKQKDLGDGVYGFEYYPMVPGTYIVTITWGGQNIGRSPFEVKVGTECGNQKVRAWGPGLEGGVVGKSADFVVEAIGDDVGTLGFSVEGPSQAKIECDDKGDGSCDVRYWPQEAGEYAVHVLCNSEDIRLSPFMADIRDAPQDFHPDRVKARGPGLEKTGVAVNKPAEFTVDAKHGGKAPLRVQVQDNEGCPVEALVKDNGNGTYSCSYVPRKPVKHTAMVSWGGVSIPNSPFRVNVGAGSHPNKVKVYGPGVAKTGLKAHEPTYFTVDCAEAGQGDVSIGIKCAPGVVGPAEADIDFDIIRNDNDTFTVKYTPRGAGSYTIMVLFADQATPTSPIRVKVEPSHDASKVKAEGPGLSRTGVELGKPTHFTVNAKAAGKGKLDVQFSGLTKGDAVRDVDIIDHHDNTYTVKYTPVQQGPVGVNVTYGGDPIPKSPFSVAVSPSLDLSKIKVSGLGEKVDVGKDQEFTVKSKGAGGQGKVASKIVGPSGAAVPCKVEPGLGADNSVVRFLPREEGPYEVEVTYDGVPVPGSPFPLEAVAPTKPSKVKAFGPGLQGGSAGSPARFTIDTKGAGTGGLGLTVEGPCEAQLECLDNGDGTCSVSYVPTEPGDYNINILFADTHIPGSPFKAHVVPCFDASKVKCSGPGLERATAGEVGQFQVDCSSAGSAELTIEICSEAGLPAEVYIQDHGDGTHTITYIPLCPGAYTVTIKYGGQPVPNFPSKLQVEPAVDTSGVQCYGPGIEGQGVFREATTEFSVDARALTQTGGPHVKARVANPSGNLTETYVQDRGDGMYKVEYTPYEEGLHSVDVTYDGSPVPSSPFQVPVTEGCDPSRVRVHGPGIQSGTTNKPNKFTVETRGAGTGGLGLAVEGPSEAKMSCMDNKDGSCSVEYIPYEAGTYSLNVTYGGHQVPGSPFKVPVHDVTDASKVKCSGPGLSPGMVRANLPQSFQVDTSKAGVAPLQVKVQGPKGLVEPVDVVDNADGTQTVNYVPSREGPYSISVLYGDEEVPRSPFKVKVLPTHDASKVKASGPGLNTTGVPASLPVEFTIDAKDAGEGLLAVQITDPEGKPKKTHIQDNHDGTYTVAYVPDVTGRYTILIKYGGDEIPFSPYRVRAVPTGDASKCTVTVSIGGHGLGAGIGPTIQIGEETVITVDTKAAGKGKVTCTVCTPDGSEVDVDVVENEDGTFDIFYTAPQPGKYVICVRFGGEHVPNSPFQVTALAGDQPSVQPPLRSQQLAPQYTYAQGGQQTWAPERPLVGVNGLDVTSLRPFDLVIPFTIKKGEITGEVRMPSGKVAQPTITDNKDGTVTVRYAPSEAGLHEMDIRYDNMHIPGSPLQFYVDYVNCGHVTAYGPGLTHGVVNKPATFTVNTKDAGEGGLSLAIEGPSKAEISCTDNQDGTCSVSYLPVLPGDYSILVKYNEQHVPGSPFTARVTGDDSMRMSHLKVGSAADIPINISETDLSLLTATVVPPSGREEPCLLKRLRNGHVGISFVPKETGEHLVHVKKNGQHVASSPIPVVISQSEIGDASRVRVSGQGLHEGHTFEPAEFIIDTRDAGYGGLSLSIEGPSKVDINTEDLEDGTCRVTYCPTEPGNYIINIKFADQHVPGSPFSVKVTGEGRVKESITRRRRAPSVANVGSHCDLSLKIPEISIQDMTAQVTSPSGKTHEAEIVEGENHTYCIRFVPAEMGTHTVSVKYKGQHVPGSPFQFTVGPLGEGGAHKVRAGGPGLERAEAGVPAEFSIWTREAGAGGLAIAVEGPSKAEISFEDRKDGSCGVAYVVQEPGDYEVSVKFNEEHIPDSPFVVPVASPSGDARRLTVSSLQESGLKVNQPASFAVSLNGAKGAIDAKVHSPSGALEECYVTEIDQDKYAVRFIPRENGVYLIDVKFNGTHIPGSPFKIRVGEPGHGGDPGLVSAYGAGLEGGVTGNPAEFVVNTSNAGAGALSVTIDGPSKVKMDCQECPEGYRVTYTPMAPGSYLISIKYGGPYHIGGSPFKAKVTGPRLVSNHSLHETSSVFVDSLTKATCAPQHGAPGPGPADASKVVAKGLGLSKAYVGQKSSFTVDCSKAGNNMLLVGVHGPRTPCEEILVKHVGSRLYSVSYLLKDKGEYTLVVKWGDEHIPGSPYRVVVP

SMILES: O=C1CC[C@@]2(O)[C@H]3Cc4ccc(O)c5c4[C@@]2(CCN3CC2CC2)[C@H]1O5 [NTX, naltrexone]
- Kd (filamin A): ~4 pM

SMILES: CC1CCC(C(C)C)C(OCC(O)CN2CC(C)OC(C)C2)C1 (stereo not shown) [Compound 3333]
- [35S]GTPγS binding to Gαo, FLNA-binding compound as agonist 0.1 μM (μ opiate receptor (MOR); listed as A3333): 170.7%
- [35S]GTPγS binding to Gαo, FLNA-binding compound as agonist 1 μM + BFNA (μ opiate receptor (MOR); listed as A3333): 65.9%
- [35S]GTPγS binding to Gαo, FLNA-binding compound as agonist 1 μM (μ opiate receptor (MOR); listed as A3333): 328.3%
- Go (MOR in anti-Gαo immunoprecipitate), average ([1]; 10 μM): 1426.3
- Gs/Go-Coupled Ratio, average ([1]; 10 μM): 0.761
- Gs/olf (MOR in anti-Gαs/olf immunoprecipitate), average ([1]; 10 μM): 1079.0
- Go (MOR in anti-Gαo immunoprecipitate), average ([1]; 100 μM): 1418.8
- Gs/Go-Coupled Ratio, average ([1]; 100 μM): 0.756
- Gs/olf (MOR in anti-Gαs/olf immunoprecipitate), average ([1]; 100 μM): 1064.8

SMILES: OC(COc1ccccc1Br)CN1CCN(CCN2CCOCC2)CC1 (stereo not shown) [Compound A0064]
- [35S]GTPγS binding to Gαo, FLNA-binding compound as agonist 0.1 μM (μ opiate receptor (MOR)): 219.2%
- [35S]GTPγS binding to Gαo, FLNA-binding compound as agonist 1 μM + BFNA (μ opiate receptor (MOR)): 43.7%
- [35S]GTPγS binding to Gαo, FLNA-binding compound as agonist 1 μM (μ opiate receptor (MOR)): 262.9%
- % DAMGO + BFNA (μ opiate receptor (MOR); relative to DAMGO + BFNA): 126.7%
- % DAMGO (0.1 μM) (μ opiate receptor (MOR); relative to DAMGO, 0.1 μM): 127.4%
- % DAMGO (1 μM) (μ opiate receptor (MOR); relative to DAMGO, 1 μM): 119.7%
- inhibition at 0.01 µM ([2]; read-out: Percent inhibition of FITC-NLX binding, 0.01 μM, 0.01 μM compound, 10 nM FITC-NLX): 41.8%
- inhibition at 0.1 µM ([2]; read-out: Percent inhibition of FITC-NLX binding, 0.1 μM, 0.1 μM compound, 10 nM FITC-NLX): 46.2%
- inhibition at 1 µM ([2]; read-out: Percent inhibition of FITC-NLX binding, 1 μM, 1 μM compound, 10 nM FITC-NLX): 53.6%
- mean maximum antinociception [3]: about 50%
- time of maximum antinociception [3]: 30 to 50 min

SMILES: C=CCN1CC[C@]23c4c5ccc(O)c4O[C@H]2C(=O)CC[C@@]3(O)[C@H]1C5 [NLX, naloxone]
- Kd (filamin A): ~4 pM
